Source: ChEMBL document CHEMBL2040827, “Quinolizidinone carboxylic acids as CNS penetrant, selective m1 allosteric muscarinic receptor modulators” (ACS Med Chem Lett, 2010)
Blank lines part the entries; values can stand above or below the molecule they belong to. Active and inactive are the calls of the source. No cut-off for these calls is given here.

Columns and labels:
[1] = target: T1, Muscarinic acetylcholine receptor M1 (Homo sapiens) (UniProt P11229); experiment: Positive allosteric modulation of human muscarinic M1 receptor expressed in CHO-NFAT cells assessed as potentiation of acetylcholine-induced calcium flux after 1 hr by FLIPR assay relative to control; assay type: functional, cell-based; design: concentration or dose not given beside the values
T1 sequence (whole entry): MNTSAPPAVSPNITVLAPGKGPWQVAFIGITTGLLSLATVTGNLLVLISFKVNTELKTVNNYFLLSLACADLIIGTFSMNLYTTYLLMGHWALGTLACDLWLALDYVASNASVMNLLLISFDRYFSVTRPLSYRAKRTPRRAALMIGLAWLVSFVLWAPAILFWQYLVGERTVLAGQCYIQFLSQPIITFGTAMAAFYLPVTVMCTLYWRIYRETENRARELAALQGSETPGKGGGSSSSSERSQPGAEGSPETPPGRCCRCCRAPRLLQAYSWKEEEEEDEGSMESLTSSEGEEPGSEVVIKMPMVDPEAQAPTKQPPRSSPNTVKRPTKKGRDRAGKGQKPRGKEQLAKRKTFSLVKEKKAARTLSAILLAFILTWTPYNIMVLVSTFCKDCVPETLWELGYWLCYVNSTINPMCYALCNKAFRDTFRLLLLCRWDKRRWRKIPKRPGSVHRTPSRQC

[2] = target: T1, Muscarinic acetylcholine receptor M1 (Homo sapiens); experiment: Positive allosteric modulation of human muscarinic M1 receptor expressed in CHO-NFAT cells assessed as potentiation of acetylcholine-induced calcium flux after 1 hr by FLIPR assay; assay type: functional, cell-based
[3] = target: Voltage-gated inwardly rectifying potassium channel KCNH2 (Homo sapiens, UniProt Q12809); experiment: Inhibition of human ERG
[4] = Ratio of drug uptake in Sprague-Dawley rat cerebrospinal fluid at 10 mg/kg, po to protein binding in rat plasma; assay type: ADME, organism-based, CSF/Plasma; design: dose 10 mg/kg, route oral; conditions: in vivo
Brain = experiment: Drug uptake in Sprague-Dawley rat brain at 10 mg/kg, po; assay type: ADME, organism-based; design: dose 10 mg/kg, route oral; conditions: in vivo, read-out: Drug uptake
[5] = (§1) Protein binding in rat plasma; assay type: ADME, cell-free; conditions: read-out: PPB (converted)
Cerebrospinal fluid = experiment: Drug uptake in Sprague-Dawley rat cerebrospinal fluid at 10 mg/kg, po; assay type: ADME, organism-based; design: dose 10 mg/kg, route oral; conditions: in vivo, read-out: Drug uptake
P-glycoprotein = experiment: Passive permeability of the compound assessed as P-glycoprotein-mediated drug transport; assay type: ADME; conditions: not told
[6] = target: MDR1a (multidrug resistance protein 1a) (Rattus norvegicus, UniProt Q6PSM0); experiment: Efflux ratio of the compound assessed as ratio of rat MDR1a-mediated permeability from basolateral to apical over apical to basolateral side of drug transport; assay type: ADME; conditions: not told
[7] = Ratio of drug level in brain to plasma in Sprague-Dawley rat at 10 mg/kg, po; assay type: ADME, organism-based; design: dose 10 mg/kg, route oral; conditions: read-out: BPR
[8] = target: MDR1 (P-glycoprotein, ABCB1) (Homo sapiens, UniProt P08183); experiment: Efflux ratio of the compound assessed as ratio of human MDR1-mediated permeability from basolateral to apical over apical to basolateral side of drug transport; assay type: ADME; conditions: not told
Plasma [9] = experiment: Plasma concentration in Sprague-Dawley rat at 10 mg/kg, po; assay type: ADME, organism-based; design: dose 10 mg/kg, route oral; conditions: in vivo
[10] = (§2) Protein binding in human plasma; assay type: ADME, cell-free; conditions: read-out: PPB (converted)
Plasma [11] = experiment: as §1; assay type: ADME, cell-free
Plasma [12] = experiment: as §2; assay type: ADME, cell-free
Mus musculus [13] = experiment: Inhibition of scopolamine-induced memory deficit in ip dosed contextual fear conditioning memory model of mouse by measuring freezing behavior at 33 uM of plasma concentration after 24 hrs […] relative to control; assay type: functional, organism-based
[14] = Fraction unbound in rat plasma; assay type: ADME, cell-free
[15] = Fraction unbound in human plasma; assay type: ADME, cell-free
[16] = target: T2, Muscarinic acetylcholine receptor M4 (Homo sapiens) (UniProt P08173); experiment: Antagonist activity at human muscarinic M4 receptor expressed in CHO-NFAT cells assessed as inhibition of acetylcholine-induced calcium flux at up to 100 uM after 1 hr by FLIPR assay; assay type: functional, cell-based
T2 sequence (whole entry): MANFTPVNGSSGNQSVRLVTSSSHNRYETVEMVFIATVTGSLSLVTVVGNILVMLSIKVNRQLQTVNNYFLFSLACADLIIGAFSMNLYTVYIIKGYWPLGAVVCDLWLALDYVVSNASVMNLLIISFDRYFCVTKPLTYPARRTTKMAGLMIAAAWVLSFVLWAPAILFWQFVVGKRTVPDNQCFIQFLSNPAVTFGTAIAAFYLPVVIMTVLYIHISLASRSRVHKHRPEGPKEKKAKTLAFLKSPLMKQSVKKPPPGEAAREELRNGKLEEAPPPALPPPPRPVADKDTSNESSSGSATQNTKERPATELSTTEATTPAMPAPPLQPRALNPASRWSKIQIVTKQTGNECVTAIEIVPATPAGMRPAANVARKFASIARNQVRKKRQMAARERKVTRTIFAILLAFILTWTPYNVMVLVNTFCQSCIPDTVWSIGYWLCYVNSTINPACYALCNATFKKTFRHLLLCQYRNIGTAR

[17] = Oral bioavailability in dog at 10 mg/kg; assay type: ADME, organism-based, Canis lupus familiaris; conditions: in vivo
Mus musculus [18] = experiment: Inhibition of scopolamine-induced memory deficit in ip dosed contextual fear conditioning memory model of mouse by measuring freezing behavior after 24 hrs […] relative to control; assay type: functional, organism-based
[19] = Half life in dog at 10 mg/kg, po and 2 mg/kg, iv; assay type: ADME, organism-based, Canis lupus familiaris; conditions: in vivo
Mus musculus [20] = experiment: Inhibition of scopolamine-induced memory deficit in contextual fear conditioning memory model of mouse by measuring freezing behavior at 30 mg/kg, ip at 7.4 uM of plasma concentration after 24 hrs […] relative to control; assay type: functional, organism-based; design: dose 30 mg/kg
[21] = Clearance in dog at 10 mg/kg, po and 2 mg/kg, iv; assay type: ADME, organism-based, Canis lupus familiaris; conditions: in vivo
[22] = target: T3, Muscarinic acetylcholine receptor M2 (Homo sapiens) (UniProt P08172); experiment: Agonist activity at human muscarinic M2 receptor expressed in CHO-NFAT cells assessed as potentiation of acetylcholine-induced calcium flux at up to 100 uM after 1 hr by FLIPR assay; assay type: functional, cell-based
T3 sequence (whole entry): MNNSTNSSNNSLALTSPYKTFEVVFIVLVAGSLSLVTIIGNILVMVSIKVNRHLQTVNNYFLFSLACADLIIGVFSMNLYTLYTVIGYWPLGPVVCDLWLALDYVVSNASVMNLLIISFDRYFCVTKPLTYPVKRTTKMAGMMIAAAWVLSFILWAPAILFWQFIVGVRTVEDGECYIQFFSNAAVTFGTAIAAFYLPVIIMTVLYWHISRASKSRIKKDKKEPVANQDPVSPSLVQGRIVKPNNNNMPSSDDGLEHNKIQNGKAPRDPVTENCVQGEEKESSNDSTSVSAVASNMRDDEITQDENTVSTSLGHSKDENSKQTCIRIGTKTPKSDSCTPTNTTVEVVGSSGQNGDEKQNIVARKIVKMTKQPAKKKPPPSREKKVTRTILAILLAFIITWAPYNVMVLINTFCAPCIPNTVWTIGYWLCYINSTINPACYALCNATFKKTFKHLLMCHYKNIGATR

[23] = target: T1, Muscarinic acetylcholine receptor M1 (Homo sapiens); experiment: Agonist activity at human muscarinic M1 receptor expressed in CHO-NFAT cells assessed as effect on calcium flux up to 10 uM after 1 hr by FLIPR assay; assay type: functional, cell-based
[24] = target: Muscarinic acetylcholine receptor M3 (Homo sapiens) (UniProt P20309); experiment: Agonist activity at human muscarinic M3 receptor expressed in CHO-NFAT cells assessed as potentiation of acetylcholine-induced calcium flux at up to 100 uM after 1 hr by FLIPR assay; assay type: functional, cell-based
[25] = target: T2, Muscarinic acetylcholine receptor M4 (Homo sapiens); experiment: Agonist activity at human muscarinic M4 receptor expressed in CHO-NFAT cells assessed as potentiation of acetylcholine-induced calcium flux at up to 100 uM after 1 hr by FLIPR assay; assay type: functional, cell-based
[26] = target: T3, Muscarinic acetylcholine receptor M2 (Homo sapiens); experiment: Antagonist activity at human muscarinic M2 receptor expressed in CHO-NFAT cells assessed as inhibition of acetylcholine-induced calcium flux at up to 100 uM after 1 hr by FLIPR assay; assay type: functional, cell-based
[27] = Clearance in Sprague-Dawley rat at 10 mg/kg, po and 2 mg/kg, iv; assay type: ADME, organism-based; conditions: in vivo
[28] = target: Muscarinic acetylcholine receptor M3 (Homo sapiens) (UniProt P20309); experiment: Antagonist activity at human muscarinic M3 receptor expressed in CHO-NFAT cells assessed as inhibition of acetylcholine-induced calcium flux at up to 100 uM after 1 hr by FLIPR assay; assay type: functional, cell-based
[29] = Half life in Sprague-Dawley rat at 10 mg/kg, po and 2 mg/kg, iv; assay type: ADME, organism-based; conditions: in vivo
[30] = Oral bioavailability in Sprague-Dawley rat at 10 mg/kg; assay type: ADME, organism-based; conditions: in vivo

Sequence of MDR1a (multidrug resistance protein 1a) (Q6PSM0 whole entry): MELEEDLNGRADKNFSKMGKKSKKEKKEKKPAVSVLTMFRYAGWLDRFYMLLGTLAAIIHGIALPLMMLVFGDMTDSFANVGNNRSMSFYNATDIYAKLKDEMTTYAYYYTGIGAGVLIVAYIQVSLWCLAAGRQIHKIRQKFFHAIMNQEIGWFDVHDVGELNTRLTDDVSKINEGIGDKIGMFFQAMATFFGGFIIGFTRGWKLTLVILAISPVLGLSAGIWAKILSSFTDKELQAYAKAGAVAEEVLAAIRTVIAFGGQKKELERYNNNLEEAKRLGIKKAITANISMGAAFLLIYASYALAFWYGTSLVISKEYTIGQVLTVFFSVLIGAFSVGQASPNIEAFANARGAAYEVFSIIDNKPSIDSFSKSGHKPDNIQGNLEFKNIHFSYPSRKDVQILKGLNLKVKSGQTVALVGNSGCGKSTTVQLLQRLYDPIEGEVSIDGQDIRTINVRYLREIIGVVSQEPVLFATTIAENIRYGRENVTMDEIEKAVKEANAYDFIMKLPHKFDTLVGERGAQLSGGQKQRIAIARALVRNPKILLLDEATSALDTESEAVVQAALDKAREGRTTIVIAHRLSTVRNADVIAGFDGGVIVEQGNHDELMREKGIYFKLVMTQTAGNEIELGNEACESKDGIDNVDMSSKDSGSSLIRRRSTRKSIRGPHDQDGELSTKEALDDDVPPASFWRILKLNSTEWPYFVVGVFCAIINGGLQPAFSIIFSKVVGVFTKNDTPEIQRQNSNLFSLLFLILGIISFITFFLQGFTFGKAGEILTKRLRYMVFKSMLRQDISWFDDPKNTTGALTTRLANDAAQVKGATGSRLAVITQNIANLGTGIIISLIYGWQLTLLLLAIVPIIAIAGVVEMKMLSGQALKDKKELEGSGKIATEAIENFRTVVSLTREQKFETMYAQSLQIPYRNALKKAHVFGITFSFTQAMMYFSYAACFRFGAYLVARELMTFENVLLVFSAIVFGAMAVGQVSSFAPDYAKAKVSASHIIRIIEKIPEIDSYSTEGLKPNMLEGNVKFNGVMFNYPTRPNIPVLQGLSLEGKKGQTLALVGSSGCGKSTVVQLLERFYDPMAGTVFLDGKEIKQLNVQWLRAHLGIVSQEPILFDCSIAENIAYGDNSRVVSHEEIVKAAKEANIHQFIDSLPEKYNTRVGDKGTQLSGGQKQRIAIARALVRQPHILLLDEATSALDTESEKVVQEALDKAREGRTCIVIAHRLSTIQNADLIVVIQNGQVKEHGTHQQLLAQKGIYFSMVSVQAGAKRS
Sequence of Voltage-gated inwardly rectifying potassium channel KCNH2 (Q12809 whole entry): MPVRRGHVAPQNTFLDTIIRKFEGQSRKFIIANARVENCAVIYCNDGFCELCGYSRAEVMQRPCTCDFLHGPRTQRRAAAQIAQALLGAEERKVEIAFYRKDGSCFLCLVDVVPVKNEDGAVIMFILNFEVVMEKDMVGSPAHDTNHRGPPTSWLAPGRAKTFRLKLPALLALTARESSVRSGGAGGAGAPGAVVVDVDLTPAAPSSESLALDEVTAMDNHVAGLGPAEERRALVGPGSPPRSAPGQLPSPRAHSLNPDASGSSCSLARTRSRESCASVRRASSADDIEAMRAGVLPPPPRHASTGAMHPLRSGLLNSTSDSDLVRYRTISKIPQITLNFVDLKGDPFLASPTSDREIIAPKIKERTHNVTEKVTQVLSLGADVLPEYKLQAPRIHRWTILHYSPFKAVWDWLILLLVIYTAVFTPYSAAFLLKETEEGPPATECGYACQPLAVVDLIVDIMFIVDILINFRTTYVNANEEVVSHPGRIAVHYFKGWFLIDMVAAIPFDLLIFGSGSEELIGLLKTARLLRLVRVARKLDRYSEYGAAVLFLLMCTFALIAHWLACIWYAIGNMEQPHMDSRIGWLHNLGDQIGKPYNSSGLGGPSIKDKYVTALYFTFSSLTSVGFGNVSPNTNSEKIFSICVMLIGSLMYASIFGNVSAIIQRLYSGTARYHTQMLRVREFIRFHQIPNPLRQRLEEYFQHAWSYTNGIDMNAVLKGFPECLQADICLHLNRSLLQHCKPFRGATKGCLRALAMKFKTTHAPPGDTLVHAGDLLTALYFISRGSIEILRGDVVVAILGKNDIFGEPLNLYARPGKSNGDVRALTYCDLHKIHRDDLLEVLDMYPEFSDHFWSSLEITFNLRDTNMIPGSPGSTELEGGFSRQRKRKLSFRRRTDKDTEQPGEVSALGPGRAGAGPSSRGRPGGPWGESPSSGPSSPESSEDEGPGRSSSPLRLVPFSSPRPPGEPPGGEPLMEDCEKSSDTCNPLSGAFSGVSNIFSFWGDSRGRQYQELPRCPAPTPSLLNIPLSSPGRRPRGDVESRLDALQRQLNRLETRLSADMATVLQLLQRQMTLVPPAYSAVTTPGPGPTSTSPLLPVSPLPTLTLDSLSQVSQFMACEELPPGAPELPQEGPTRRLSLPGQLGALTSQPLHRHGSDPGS
Sequence of MDR1 (P-glycoprotein, ABCB1) (P08183 whole entry): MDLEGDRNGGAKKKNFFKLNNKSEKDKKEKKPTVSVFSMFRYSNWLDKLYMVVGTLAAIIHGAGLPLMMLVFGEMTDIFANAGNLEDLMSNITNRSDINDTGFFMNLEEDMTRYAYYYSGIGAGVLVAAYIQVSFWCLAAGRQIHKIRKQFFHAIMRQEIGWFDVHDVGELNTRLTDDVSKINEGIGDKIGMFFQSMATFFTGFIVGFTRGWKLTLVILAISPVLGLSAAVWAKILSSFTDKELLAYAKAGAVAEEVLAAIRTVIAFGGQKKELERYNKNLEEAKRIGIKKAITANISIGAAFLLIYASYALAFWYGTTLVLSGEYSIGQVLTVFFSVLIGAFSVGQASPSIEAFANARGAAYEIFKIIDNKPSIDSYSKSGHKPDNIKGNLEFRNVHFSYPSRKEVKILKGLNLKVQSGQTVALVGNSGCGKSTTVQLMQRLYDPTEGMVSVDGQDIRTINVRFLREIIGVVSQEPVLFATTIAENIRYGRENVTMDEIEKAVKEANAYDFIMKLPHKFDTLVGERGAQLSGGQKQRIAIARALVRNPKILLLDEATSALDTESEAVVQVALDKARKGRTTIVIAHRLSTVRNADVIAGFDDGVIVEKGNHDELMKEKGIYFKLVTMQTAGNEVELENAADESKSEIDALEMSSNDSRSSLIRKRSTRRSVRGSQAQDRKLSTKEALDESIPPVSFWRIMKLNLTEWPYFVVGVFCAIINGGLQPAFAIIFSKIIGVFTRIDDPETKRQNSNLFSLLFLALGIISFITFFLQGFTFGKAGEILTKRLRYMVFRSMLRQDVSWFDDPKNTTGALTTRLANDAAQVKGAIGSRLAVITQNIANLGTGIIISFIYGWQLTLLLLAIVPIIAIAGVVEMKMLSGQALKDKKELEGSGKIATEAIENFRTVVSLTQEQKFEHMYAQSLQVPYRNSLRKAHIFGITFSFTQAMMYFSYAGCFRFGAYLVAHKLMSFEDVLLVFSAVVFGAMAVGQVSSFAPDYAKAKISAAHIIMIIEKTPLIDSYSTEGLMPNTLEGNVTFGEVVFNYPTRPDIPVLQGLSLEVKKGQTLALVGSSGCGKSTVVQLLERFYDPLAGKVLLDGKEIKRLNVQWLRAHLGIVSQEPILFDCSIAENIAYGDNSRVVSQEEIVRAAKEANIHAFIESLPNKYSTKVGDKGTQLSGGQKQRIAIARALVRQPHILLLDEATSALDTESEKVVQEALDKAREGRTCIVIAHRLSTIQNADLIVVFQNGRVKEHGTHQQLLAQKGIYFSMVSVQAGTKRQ
Sequence of Muscarinic acetylcholine receptor M3 (Homo sapiens) (P20309 whole entry, looked up): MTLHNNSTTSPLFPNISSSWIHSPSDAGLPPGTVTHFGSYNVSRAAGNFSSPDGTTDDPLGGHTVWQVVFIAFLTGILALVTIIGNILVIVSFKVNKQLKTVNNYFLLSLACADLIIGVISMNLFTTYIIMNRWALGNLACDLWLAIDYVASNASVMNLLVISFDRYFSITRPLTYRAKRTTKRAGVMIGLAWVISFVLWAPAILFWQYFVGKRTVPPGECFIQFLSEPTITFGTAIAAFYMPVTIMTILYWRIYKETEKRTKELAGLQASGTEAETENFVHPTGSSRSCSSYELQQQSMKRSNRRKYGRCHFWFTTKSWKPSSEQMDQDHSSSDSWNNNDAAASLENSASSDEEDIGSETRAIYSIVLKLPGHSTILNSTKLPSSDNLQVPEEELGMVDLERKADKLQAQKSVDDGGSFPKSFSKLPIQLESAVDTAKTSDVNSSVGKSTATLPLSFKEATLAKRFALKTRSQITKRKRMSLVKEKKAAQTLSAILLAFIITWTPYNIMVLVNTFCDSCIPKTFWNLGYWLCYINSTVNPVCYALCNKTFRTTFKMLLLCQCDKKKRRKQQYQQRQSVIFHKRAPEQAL

SMILES: O=C(O)c1cc(CN2CCN(c3ccc(C(F)(F)F)cc3)CC2)c2ccccn2c1=O
IC50 [3]: 0.1 µM
Ratio [4]: 0.25
Activity [1]: 67%
concentration (Brain): 3080 nM
fraction unbound [5]: 0.034
concentration (Cerebrospinal fluid): 14 nM
Papp (P-glycoprotein): 32 ×10⁻⁶ cm/s
efflux ratio [6]: 1.3
Kp [7]: 2.7
Activity [2]: 0.27 µM
efflux ratio [8]: 1.4
concentration (Plasma [9]): 1140 nM
fraction unbound [10]: 0.049

SMILES: O=C(O)c1cc(CN2CCCCC2)c2ccccn2c1=O
Activity [1]: 87%
Activity [2]: 7.6 µM

SMILES: O=C(O)c1cc(C(=O)c2ccccc2)c2ccccn2c1=O
Activity [2]: > 100 µM

SMILES: O=C(O)c1cc(Cc2ccc(Cl)cc2)c2ccccn2c1=O
Activity [1]: 93%
Activity [2]: 0.2 µM

SMILES: COc1ccc(Cn2cc(C(=O)O)c(=O)c3ccccc32)cc1
inhibition (Mus musculus [13]): inactive

SMILES: O=C(O)c1cc(Cc2ccccc2)c2ccccn2c1=O
Activity [1]: 81%
Activity [2]: 0.92 µM

SMILES: O=C(O)c1cc(Cc2ccc(-c3ccccn3)cc2)c2ccccn2c1=O
Activity [1]: 78%
Activity [2]: 0.061 µM

SMILES: O=C(O)c1cc(Cc2ccc(-c3cccnc3)cc2)c2ccccn2c1=O
Activity [1]: 74%
fraction unbound [5]: 0.015
Activity [2]: 0.075 µM
fraction unbound [10]: 0.003

SMILES: O=C(O)c1cc(CN2CCN(c3ccccc3)C(=O)C2)c2ccccn2c1=O
Activity [1]: 89%
fraction unbound [5]: 0.62
Activity [2]: 1.1 µM
fraction unbound [10]: 0.479

More lines, main results first:

Activity [1]: 58%
Activity [2]: 1.3 µM
SMILES: O=C(O)c1cc(CN2CCC(c3ccccc3)CC2)c2ccccn2c1=O

Activity [2]: > 100 µM
SMILES: O=C(O)c1cc(C(O)c2ccccc2)c2ccccn2c1=O (stereo unspecified)

Activity [1]: 86%
PPB (Plasma [11]): ND(Insoluble)
Activity [2]: 0.11 µM
PPB (Plasma [12]): ND(Insoluble)
SMILES: O=C(O)c1cc(Cc2ccc(-c3ccccc3)cc2)c2ccccn2c1=O

Ratio [4]: 0.32
Activity [1]: 77%
concentration (Brain): 4580 nM
fraction unbound [5]: 0.039
fraction unbound [14]: 0.04
concentration (Cerebrospinal fluid): 70 nM
Papp (P-glycoprotein): 16 ×10⁻⁶ cm/s
efflux ratio [6]: 0.6
Kp [7]: 1.3
Activity [2]: 0.13 µM
efflux ratio [8]: 0.1
concentration (Plasma [9]): 3650 nM
fraction unbound [10]: 0.065
SMILES: O=C(O)c1cc(CN2CCN(c3ccc(Br)cc3)CC2)c2ccccn2c1=O
IC50 [3]: 2.1 µM

Activity [1]: 52%
fraction unbound [5]: 0.369
fraction unbound [14]: > 0.25
fraction unbound [15]: > 0.25
Activity [2]: 0.93 µM
fraction unbound [10]: 0.26
SMILES: O=C(O)c1cc(CN2CCN(c3ccccc3)CC2)c2ccccn2c1=O

Ratio [4]: 0.42
Activity [1]: 94%
concentration (Brain): 248 nM
inhibition [16]: inactive
bioavailability [17]: 33%
fraction unbound [5]: 0.062
half-life [19]: 2.5 h
concentration (Cerebrospinal fluid): 85 nM
clearance [21]: 13 mL/min/kg
Papp (P-glycoprotein): 22 ×10⁻⁶ cm/s
Activity [22]: inactive
Activity [23]: inactive
Activity [24]: inactive
Activity [25]: inactive
inhibition [26]: inactive
efflux ratio [6]: 1.9
Kp [7]: 0.17
Activity [2]: 0.52 µM
clearance [27]: 10.8 mL/min/kg
efflux ratio [8]: 0.7
inhibition [28]: inactive
half-life [29]: 6.4 h
concentration (Plasma [9]): 1500 nM
fraction unbound [10]: 0.134
bioavailability [30]: 23%
SMILES: N#Cc1ccc(N2CCN(Cc3cc(C(=O)O)c(=O)n4ccccc34)CC2)cc1
IC50 [3]: 7.4 µM
inhibition (Mus musculus [18]): Dose-dependent effect
inhibition (Mus musculus [20]): Active
inhibition (Mus musculus [13]): Active

Activity [2]: > 100 µM
SMILES: O=C(O)c1cc(CN2CCC(c3ccccc3)C2)c2ccccn2c1=O (stereo unspecified)

Ratio [4]: 0.02
Activity [1]: 86%
concentration (Brain): 59 nM
concentration (Cerebrospinal fluid): 16 nM
Papp (P-glycoprotein): < 5 ×10⁻⁶ cm/s
Kp [7]: 0.03
Activity [2]: 1.5 µM
concentration (Plasma [9]): 2070 nM
SMILES: O=C(O)c1cc(CN2CCN(c3ccncc3)CC2)c2ccccn2c1=O
